The text below walks through data of patent publication US8183239B2, “Substituted piperazines and piperidines as modulators of the neuropeptide Y2 receptor” (Janssen Pharmaceutica NV, priority 2005, dated 2012).

This experiment concerns the target T1, Y2 receptors (Homo sapiens, UniProt P49146).
T1 construct: endogenous in cells; host or cells: KAN-Ts cells (membranes)
T1 sequence (P49146 1-381): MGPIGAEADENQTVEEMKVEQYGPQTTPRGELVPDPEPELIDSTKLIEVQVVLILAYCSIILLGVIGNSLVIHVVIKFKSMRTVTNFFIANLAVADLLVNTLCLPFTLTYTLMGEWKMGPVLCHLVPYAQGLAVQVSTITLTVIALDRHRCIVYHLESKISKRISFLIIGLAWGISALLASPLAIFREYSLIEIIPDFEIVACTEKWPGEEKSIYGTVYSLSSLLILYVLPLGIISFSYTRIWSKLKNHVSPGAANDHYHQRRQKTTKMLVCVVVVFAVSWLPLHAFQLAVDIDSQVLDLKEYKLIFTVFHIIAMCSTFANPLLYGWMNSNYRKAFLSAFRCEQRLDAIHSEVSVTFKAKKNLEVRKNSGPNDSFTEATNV
In words: Radioligand binding assay ([125I]PYY, KAN-Ts cell membranes). The conditions noted are these: Table 2, [125I]PYY 80 pM, average of results, read-out: IC50. The essentials:
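Membranes from KAN-Ts cells endogenously expressing Y2 incubated 1 h at rt with 80 pM [^125I]PYY ± test compound in HEPES buffer with NaCl, Ca^2+ and Mg^2+. Bound radioactivity collected by filtration; specific binding defined with […]. IC50 from sigmoidal fit, averaged over 3-8 duplicate experiments.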

The term IC50 denotes the concentration that gives 50% inhibition. As to `CCN(CC)C(=O)C(c1ccccc1)N1CCN(c2ccc(NC(=O)C3CC4CCC3C4)cc2F)CC1` (stereo not shown) [Example 228, Bicyclo[2.2.1]heptane-2-carboxylic acid {4-[4-(diethylcarbamoyl-phenyl-methyl)-piperazin-1-yl]-3-fluoro-phenyl}-amide], the IC50 was found to be 120 nM.
In the case of `CCN(CC)C(=O)C(c1ccccc1)C1CCN(c2ccc(NC(=O)C3CC3)cc2F)CC1` (stereo not shown) [Example 229, Cyclopropanecarboxylic acid {4-[4-(diethylcarbamoyl-phenyl-methyl)-piperidin-1-yl]-3-fluoro-phenyl}-amide], the IC50 was 120 nM.
As to `CCN(CC)C(=O)C(c1ccccc1)N1CCN(c2c(F)cc(NC(=O)C3CCCC3)cc2F)CC1` (stereo not shown) [Example 230, Cyclopentanecarboxylic acid {4-[4-(diethylcarbamoyl-phenyl-methyl)-piperazin-1-yl]-3,5-difluoro-phenyl}-amide], the IC50 came to 150 nM.
Regarding `CCN(CC)C(=O)C(c1ccccc1)N1CCN(c2ccc(NC(=O)C3CCCC3)cc2C)CC1` (stereo not shown) [Example 231, Cyclopentanecarboxylic acid {4-[4-(diethylcarbamoyl-phenyl-methyl)-piperazin-1-yl]-3-methyl-phenyl}-amide], the IC50 came out at 200 nM.
Consider `CCC(CC)C(=O)Nc1ccc(N2CCN(C(C(=O)N(CC)CC)c3ccccc3)CC2)c(C)c1` (stereo not shown) [Example 232, N-{4-[4-(Diethylcarbamoyl-phenyl-methyl)-piperazin-1-yl]-3-methyl-phenyl}-2-ethyl-butyramide], for which the IC50 came out at 210 nM.
Consider `CCC(CC)C(=O)Nc1ccc(N2CCN(C(C(=O)N(CC)CC)c3ccccc3)CC2)c(F)c1F` (stereo not shown) [Example 233, N-{4-[4-(Diethylcarbamoyl-phenyl-methyl)-piperazin-1-yl]-2,3-difluoro-phenyl}-2-ethyl-butyramide], for which the IC50 came out at 270 nM.
In the case of `CCC(CC)C(=O)Nc1ccc(N2CCC(C(C#N)c3ccccc3)CC2)c(F)c1` (stereo not shown) [Example 234, N-{4-[4-(Cyano-phenyl-methyl)-piperidin-1-yl]-3-fluoro-phenyl}-2-ethyl-butyramide], the IC50 turned out to be 280 nM.
`CCNC(=O)C(c1ccccc1)N1CCN(c2c(F)cc(NC(=O)[C@@H]3CCOC3)cc2F)CC1` (stereo partly drawn) [Example 236, (R)-Tetrahydro-furan-3-carboxylic acid {4-[4-(ethylcarbamoyl-phenyl-methyl)-piperazin-1-yl]-3,5-difluoro-phenyl}-amide]: the IC50 came to 900 nM.
Regarding `CCC(CC)C(=O)Nc1ccc(N2CCN(C(C(=O)N(CC)CC)c3ccccc3)CC2)cc1C#N` (stereo not shown) [Example 237, N-{2-Cyano-4-[4-(diethylcarbamoyl-phenyl-methyl)-piperazin-1-yl]-phenyl}-2-ethyl-butyramide], the IC50 was found to be 1100 nM.
Consider `CCN(CC)C(=O)C(c1ccccc1)N1CCN(c2ccc(NC(=O)C3CCCC3)cc2OC)CC1` (stereo not shown) [Example 238, Cyclopentanecarboxylic acid {4-[4-(diethylcarbamoyl-phenyl-methyl)-piperazin-1-yl]-3-methoxy-phenyl}-amide], for which the IC50 amounted to 1300 nM.
Take `CCNC(=O)C(c1ccccc1)N1CCN(c2c(F)cc(NC(=O)C3CCCC3)cc2F)CC1` (stereo not shown) [Example 239, Cyclopentanecarboxylic acid {4-[4-(ethylcarbamoyl-phenyl-methyl)-piperazin-1-yl]-3,5-difluoro-phenyl}-amide]: the IC50 was found to be 2500 nM.
As to `C#Cc1cc(NC(=O)C(CC)CC)ccc1N1CCN(C(C(=O)N(CC)CC)c2ccccc2)CC1` (stereo not shown) [Example 240, N-{4-[4-(Diethylcarbamoyl-phenyl-methyl)-piperazin-1-yl]-3-ethynyl-phenyl}-2-ethyl-butyramide], the IC50 came out at 18 nM.
For the molecule `CCN(CC)C(=O)C(c1ccccc1)N1CCN(c2ccc(NC(=O)CC3CC3)cc2F)CC1` (stereo not shown) [Example 241, 2-{4-[4-(2-Cyclopropyl-acetylamino)-2-fluoro-phenyl]-piperazin-1-yl}-N,N-diethyl-2-phenyl-acetamide], the IC50 came out at 300 nM.
Take `CCN(CC)C(=O)C(c1ccccc1)N1CCN(c2ccc(NC(=O)CC3CCCC3)cc2F)CC1` (stereo not shown) [Example 242, 2-{4-[4-(2-Cyclopentyl-acetylamino)-2-fluoro-phenyl]-piperazin-1-yl}-N,N-diethyl-2-phenyl-acetamide]: the IC50 was 3000 nM.
On to `CCN(CC)C(=O)C(c1ccccc1)N1CCN(c2ccc(NC(=O)C3CC3C)cc2F)CC1` (stereo not shown) [Example 243, 2-Methyl-cyclopropanecarboxylic acid {4-[4-(diethylcarbamoyl-phenyl-methyl)-piperazin-1-yl]-3-fluoro-phenyl}-amide], for which the IC50 is 120 nM.
As for `CCN(CC)C(=O)C(c1ccccc1)N1CCN(c2ccc(NC(=O)C3CCCC3)cc2F)CC1` (stereo not shown) [Example 244, Cyclopentanecarboxylic acid {4-[4-(diethylcarbamoyl-phenyl-methyl)-piperazin-1-yl]-3-fluoro-phenyl}-amide], the IC50 was 80 nM.
Turning to `CCC(CC)NC(=O)c1ccc(N2CCN(C(C(=O)N(CC)CC)c3ccccc3)CC2)c(F)c1` (stereo not shown) [Example 245, 4-[4-(Diethylcarbamoyl-phenyl-methyl)-piperazin-1-yl]-N-(1-ethyl-propyl)-3-fluoro-benzamide], the IC50 was found to be 3000 nM.
For the molecule `CCN(CC)C(=O)C(c1ccccc1)N1CCN(c2ccc(CNC(=O)C(C)CC(F)(F)F)cc2F)CC1` (stereo not shown) [Example 246, N-{4-[4-(Diethylcarbamoyl-phenyl-methyl)-piperazin-1-yl]-3-fluoro-benzyl}-4,4,4-trifluoro-2-methyl-butyramide], the IC50 came out at 2200 nM.
For `CCN(CC)C(=O)C(c1ccccc1)N1CCN(c2ccc(CNC(=O)[C@H]3CCOC3)cc2F)CC1` (stereo partly drawn) [Example 247, (S)-Tetrahydro-furan-3-carboxylic acid 4-[4-(diethylcarbamoyl-phenyl-methyl)-piperazin-1-yl]-3-fluoro-benzylamide], the IC50 was no less than 10000 nM.
Under `CCC(CC)C(=O)Nc1ccc(N2CCC([C@@H](C(=O)N(CC)CC)c3ccccc3)CC2)c(F)c1` [Example 248, (R)-(−)-N-{4-[4-(Diethylcarbamoyl-phenyl-methyl)-piperidin-1-yl]-3-fluoro-phenyl}-2-ethyl-butyramide] stands 13 nM; under `CCC(CC)C(=O)Nc1ccc(N2CCC([C@H](C(=O)N(CC)CC)c3ccccc3)CC2)c(F)c1` [Example 249, (S)—(+)-N-{4-[4-(Diethylcarbamoyl-phenyl-methyl)-piperidin-1-yl]-3-fluoro-phenyl}-2-ethyl-butyramide], 100 nM; under `CCC(CC)C(=O)Nc1ccc(N2CCN(C(C(=O)N(CC)CC)c3ccc(OC)cc3)CC2)c(C#N)c1` (stereo not shown) [Example 250, N-(3-Cyano-4-{4-[diethylcarbamoyl-(4-methoxy-phenyl)-methyl]-piperazin-1-yl}-phenyl)-2-ethyl-butyramide], 9 nM.
Take `CCC(CC)C(=O)Nc1ccc(N2CCN(C(C(=O)N(CC)CC)c3ccc(OC)cc3)CC2)c(F)c1` (stereo not shown) [Example 251, N-(4-{4-[Diethylcarbamoyl-(4-methoxy-phenyl)-methyl]-piperazin-1-yl}-3-fluoro-phenyl)-2-ethyl-butyramide]: the IC50 worked out at 18 nM.
With `CCC(CC)C(=O)Nc1ccc(N2CCN(C(C(=O)N(CC)CC)c3ccc(O)cc3)CC2)c(F)c1` (stereo not shown) [Example 252, N-(4-{4-[Diethylcarbamoyl-(4-hydroxy-phenyl)-methyl]-piperazin-1-yl}-3-fluoro-phenyl)-2-ethyl-butyramide], the IC50 turned out to be 104 nM.
Consider `CCC(CC)C(=O)Nc1ccc(N2CCN(C(C(=O)N(CC)CC)c3ccc(Cl)cc3)CC2)c(F)c1` (stereo not shown) [Example 253, N-(4-{4-[(4-Chloro-phenyl)-diethylcarbamoyl-methyl]-piperazin-1-yl}-3-fluoro-phenyl)-2-ethyl-butyramide], for which the IC50 came to 102 nM.
`CCC(CC)C(=O)Nc1ccc(N2CCN(C(C(=O)N(CC)CC)c3ccc(C#N)cc3)CC2)c(F)c1` (stereo not shown) [Example 254, N-(4-{4-[(4-Cyano-phenyl)-diethylcarbamoyl-methyl]-piperazin-1-yl}-3-fluoro-phenyl)-2-ethyl-butyramide]: the IC50 came out at 44 nM.
As for `CCOc1ccc(C(C(=O)N(CC)CC)N2CCN(c3ccc(NC(=O)C(CC)CC)cc3F)CC2)cc1` (stereo not shown) [Example 255, N-(4-{4-[Diethylcarbamoyl-(4-ethoxy-phenyl)-methyl]-piperazin-1-yl}-3-fluoro-phenyl)-2-ethyl-butyramide], the IC50 was 44 nM.
Under `CCC(CC)C(=O)Nc1ccc(N2CCN(C(C(=O)N(CC)CC)c3ccc(OC(F)(F)F)cc3)CC2)c(F)c1` (stereo not shown) [Example 256, N-(4-{4-[Diethylcarbamoyl-(4-trifluoromethoxy-phenyl)-methyl]-piperazin-1-yl}-3-fluoro-phenyl)-2-ethyl-butyramide] stands 26 nM; under `CCC(CC)C(=O)Nc1ccc(N2CCN(C(C(=O)N(CC)CC)c3ccccc3)C(C)C2)c(F)c1` (stereo not shown) [Example 257, N-{4-[4-(Diethylcarbamoyl-phenyl-methyl)-3-methyl-piperazin-1-yl]-3-fluoro-phenyl}-2-ethyl-butyramide], 68 nM.
For `CCC(CC)C(=O)Nc1ccc(N2CCN(C(C(=O)N(CC)CC)c3ccccc3)CC2C)c(F)c1` (stereo not shown) [Example 258] the value was 145 nM; for `CCC(CC)C(=O)Nc1ccc(N2CCN(C(C(=O)c3ccccc3)c3ccccc3)CC2)c(F)c1` (stereo not shown) [Example 259, 2-Ethyl-N-{3-fluoro-4-[4-(2-oxo-1,2-diphenyl-ethyl)-piperazin-1-yl]-phenyl}-butyramide], 70 nM.
